The values that follow are results of earlier work, collected in patent US7871609B2, “Supplements for pain management” (priority 2007, dated 2011).

Counter-ions that a name gives are not always drawn. Like-named read-outs stand apart in the source and are kept apart here.

For data set [1], the system named is bilateral olfactory bulbectomy (OB) model.
A further data set relates to forced swimming test. Particulars: chronic treatment 14 days, 1.25, 2.5, 5 and 10 mg/kg, p.o.
Data set [2] has as its system NF-kappaB signalling in human articular chondrocytes.
Data set [3] deals with chronically stressed rats.
In data set [4] the test system is cells in tissue culture that express PMP22 mutants. Conditions: cells expressing PMP22 mutants.
A further data set relates to spasmodic dysmenorrhea. Particulars: 556 girls aged 12-21 yr, oral daily dose of 100 mg for 90 days.
Data set [5] relates to cultured cerebellar granule neurons (CGNs). Particulars: exposure to amprolium.
Data set [6] has as its system osteoarthritis (OA) of the knee.
Data set [7] concerns homocysteine-induced atherosclerosis. Conditions: day 14, homocysteine thiolactone intake, supplemented versus deficient rats.

As for `COc1cc(/C=C/C(=O)CC(=O)/C=C/c2ccc(O)c(OC)c2)ccc1O` [Curcumin, diferuloylmethane], the “OB-induced behavioral abnormalities (hyperactivity in open field, deficits in step-down passive avoidance)” value in data set [1] (chronic administration p.o.) was “reversed”. For the same compound, in data set [1] (rat, in vivo), the “OB-induced changes of 5-HT, NA, 5-HIAA and DOPAC in the hippocampus” value is recorded as “completely reversed”; the “OB-induced decrease in 5-HT, NA and DA levels in the frontal cortex” value is “also reversed”. In addition, in the data set on forced swimming test, the immobility time entry is “reduced the immobility time”. For the same compound, in [2], the “IL-1beta-induced down-regulation of collagen type II and beta1-integrin receptor expression” value is on record as “reversed”; the “IL-1beta-induced stimulation of protein kinase B Akt” value is on record as “inhibited”. Also, the “IL-1beta-induced NF-kappaB activation” value in data set [2] (via inhibition of IkappaBalpha phosphorylation and degradation, p65 phosphorylation and nuclear translocation) is reported as “suppressed”. Besides, the “expression of NF-kappaB targets COX-2 and MMP-9” value in [2] (western blotting) is given as “down-regulation”. In addition, in the data set with Trembler-J mouse model (mouse, in vivo), the motor performance entry is given as “improved motor performance”; the “myelinated axons in sciatic nerves” value is “increased number and size”. Moreover, in the data set with Trembler-J mouse model (oral administration, dose-dependent), the neuropathy phenotype entry is on record as “partially mitigates the severe neuropathy phenotype”. For the same compound, the “percentage of apoptotic Schwann cells” value in the data set with Trembler-J mouse model (sciatic nerves) was “significantly decreases”. Moreover, in [3] (10 and 20 mg/kg, p.o., 20 days chronic stress), the hippocampal neurogenesis entry is “increased hippocampal neurogenesis”. Also, in data set [3] (chronic stress), the “5-HT(1A) mRNA and BDNF protein levels in the hippocampal subfields” value is “significantly prevented the stress-induced decrease”. Further, the apoptosis result in data set [4] is “reduced apoptosis”.

For the compound `Cc1ncc(C[n+]2csc(CCO)c2C)c(N)n1` [Vitamin B1, thiamine], in the data set on spasmodic dysmenorrhea, the completely cured is given as 87%, the no effect whatsoever is recorded as 5% and the “relieved (pain almost nil to reduced)” value is reported as 8%. Besides, in the data set with tumors or masses (thiamin alone injected), the “cases of Baker's cyst cured without recurrence” value was 13 out of 15 and the “cases of submandibular gland cyst cured without recurrence” value is “Two”.

For `CCCc1ncc(C[n+]2ccccc2C)c(N)n1` [amprolium], the “effect on cerebellar granule neurons” value in data set [5] was “caused apoptosis and the generation of reactive oxygen species”.

As to `O=C(O)Cc1ccccc1Nc1c(Cl)cccc1Cl` [diclofenac], the “mean Lequesne's Algofunctional Index (LFI) at end” value in data set [6] (after the 6-week observation period) is 9.4. Moreover, the “mean Lequesne's Algofunctional Index (LFI) at start” value in data set [6] (before the 6-week observation period) was 12.5. In addition, the tolerability judgment result in data set [6] (majority of patients) was “very good or good”. Also, the “global judgment of efficacy by physician, at least good ratings” value in [6] (share of patients, 6 weeks) is given as 37.2%.

Consider `CN(C)CCCN1c2ccccc2CCc2ccccc21` [imipramine], for which the hippocampal neurogenesis entry in [3] (10 mg/kg, i.p.) is recorded as “increased hippocampal neurogenesis”.

For the compound `Cc1ncc(C[n+]2csc(CCO)c2C)c(N)n1` [thiamin HCl], the “osteosarcoma circumference before treatment” value in the data set with tumors or masses (one case, pathology-confirmed) was 30 cm. The “osteosarcoma circumference after treatment” value with tumors or masses (subcutaneous perfusion of 300 once only, within 2 days) is listed as 20 cm. In addition, the “equivalent reduction in osteosarcoma volume” value with tumors or masses (within 2 days) is recorded as 50-75%.

`Cc1ncc(CO)c(CO)c1O` [vitamin B-6, pyridoxine]: the aortic lesions result in [7] is recorded as “not in vitamin B6-supplemented rats”.
